# Results published in patent publication US9290451B2 (Hoffmann-La Roche Inc., priority 2011, dated 2016).
# pEC50: −log10 of the molar value. Where two headings read alike, the source gives them in different places.
# How the values were obtained:
# human CB1 receptors = human CB1 receptors (Homo sapiens (Human), UniProt P21554); experiment: cAMP assay, CHO cells expressing human CB1 receptors; type: cell-based
# Outline: (§1)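 EC50 values come from a TR-FRET cAMP read-out (standard curve 10 μM–0.13 nM cAMP) after 30 min compound exposure at 30 °C in IBMX (1 mM)-containing Krebs Ringer bicarbonate buffer, using CHO cells carrying human CB1 or CB2 receptors.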
# human CB2 receptors = human CB2 receptors (Homo sapiens (Human), UniProt P34972); experiment: cAMP assay, CHO cells expressing human CB2 receptors; type: cell-based
# Outline: as §1
# [1] = CHO cells expressing human CB1, cAMP, read-out: human CB1 EC50
# [2] = CHO cells expressing human CB2, cAMP, read-out: human CB2 EC50
# Chain of human CB1 receptors (P21554 whole entry): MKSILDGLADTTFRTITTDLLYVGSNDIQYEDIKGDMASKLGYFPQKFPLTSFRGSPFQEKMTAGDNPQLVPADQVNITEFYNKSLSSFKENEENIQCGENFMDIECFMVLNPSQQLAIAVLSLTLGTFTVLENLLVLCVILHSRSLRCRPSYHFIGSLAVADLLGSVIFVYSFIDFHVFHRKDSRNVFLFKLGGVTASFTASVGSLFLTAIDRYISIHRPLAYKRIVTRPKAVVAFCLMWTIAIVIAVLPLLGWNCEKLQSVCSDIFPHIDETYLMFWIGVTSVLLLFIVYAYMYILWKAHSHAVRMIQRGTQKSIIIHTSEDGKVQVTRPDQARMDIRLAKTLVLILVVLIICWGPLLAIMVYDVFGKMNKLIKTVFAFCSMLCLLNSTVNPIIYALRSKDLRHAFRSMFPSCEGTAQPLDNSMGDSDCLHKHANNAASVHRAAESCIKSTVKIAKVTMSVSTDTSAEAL
# Chain of human CB2 receptors (P34972 whole entry): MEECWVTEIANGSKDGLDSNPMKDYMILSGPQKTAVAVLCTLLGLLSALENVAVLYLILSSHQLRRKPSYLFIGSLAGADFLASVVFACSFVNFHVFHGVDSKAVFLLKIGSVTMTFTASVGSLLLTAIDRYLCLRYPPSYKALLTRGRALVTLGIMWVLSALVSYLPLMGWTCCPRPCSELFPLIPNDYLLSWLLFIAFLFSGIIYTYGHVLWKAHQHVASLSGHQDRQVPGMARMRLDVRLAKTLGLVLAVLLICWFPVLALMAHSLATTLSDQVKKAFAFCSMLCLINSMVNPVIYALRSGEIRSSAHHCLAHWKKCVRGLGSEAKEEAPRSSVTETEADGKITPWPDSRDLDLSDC
smiles,measurement,setting,value
"Cc1nc([C@H](CC2CC2)NC(=O)c2ccc(N3CC(F)(F)C3)c(-c3cccc(Cl)c3)n2)no1 [Example 164, 6-(3-Chloro-phenyl)-5-(3,3-difluoro-azetidin-1-yl)-pyridine-2-carboxylic acid [(S)-2-cyclopropyl-1-(5-methyl-[1,2,4]oxadiazol-3-yl)-ethyl]-amide]",pEC50,human CB1 receptors; [1],< 5.00
same,pEC50,human CB2 receptors; [2],6.60
"Cc1nc([C@@](C)(NC(=O)c2ccc(C3CC3)c(OCC3CC3)n2)C2CC2)no1 [Example 323, 5-Cyclopropyl-6-cyclopropylmethoxy-pyridine-2-carboxylic acid [(+)-1-cyclopropyl-1-(5-methyl-[1,2,4]oxadiazol-3-yl)-ethyl]-amide]",pEC50,human CB1 receptors; [1],6.74
same,pEC50,human CB2 receptors; [2],9.05
"CNC(=O)[C@@H](NC(=O)c1ccc(Br)c(OCC2CCCO2)n1)C(C)(C)C (stereo partly drawn) [Example 188, 5-Bromo-6-(tetrahydro-furan-2-ylmethoxy)-pyridine-2-carboxylic acid ((S)-2,2-dimethyl-1-methylcarbamoyl-propyl)-amide]",pEC50,human CB1 receptors; [1],6.43
same,pEC50,human CB2 receptors; [2],8.30
"CC(C)C[C@H](NC(=O)c1ccc(C2CCOC2)c(OCC2CC2)n1)C(N)=O (stereo partly drawn) [Example 114, 6-Cyclopropylmethoxy-5-(tetrahydro-furan-3-yl)-pyridine-2-carboxylic acid ((S)-1-carbamoyl-3-methyl-butyl)-amide]",pEC50,human CB1 receptors; [1],6.15
same,pEC50,human CB2 receptors; [2],8.24
"CNC(=O)C(C)(C)NC(=O)c1ccc(C2CCCC2)c(OCC2CC2)n1 [Example 40, 5-Cyclopentyl-6-cyclopropylmethoxy-pyridine-2-carboxylic acid (1-methyl-1-methylcarbamoyl-ethyl)-amide]",pEC50,human CB1 receptors; [1],< 5.00
same,pEC50,human CB2 receptors; [2],7.51
"Cc1nc(C(NC(=O)c2ccc(C3CC3)c(OCC3CC3)n2)C2CC2)no1 (centres unmarked) [Example 190, 5-Cyclopropyl-N-(cyclopropyl(5-methyl-1,2,4-oxadiazol-3-yl)methyl)-6-(cyclopropylmethoxy)picolinamide]",pEC50,human CB1 receptors; [1],< 5.00
same,pEC50,human CB2 receptors; [2],7.69
"CCC(C)(NC(=O)c1ccc(C2CC2)c(OCC2CC2)n1)C(N)=O (centres unmarked) [Example 170, N-(1-Amino-2-methyl-1-oxobutan-2-yl)-5-cyclopropyl-6-(cyclopropylmethoxy)picolinamide]",pEC50,human CB1 receptors; [1],< 5.00
same,pEC50,human CB2 receptors; [2],6.71
"Cc1nc([C@H](CC(C)C)NC(=O)c2cccc(C(O)c3ccc(F)cc3)n2)no1 (stereo partly drawn) [Example 318, 6-[(4-Fluoro-phenyl)-hydroxy-methyl]-pyridine-2-carboxylic acid [(S)-3-methyl-1-(5-methyl-[1,2,4]oxadiazol-3-yl)-butyl]-amide]",pEC50,human CB1 receptors; [1],< 5.00
same,pEC50,human CB2 receptors; [2],7.60
"CNC(=O)[C@@H](NC(=O)c1ccc(C2CC2)c(S(=O)(=O)CC(C)C)n1)C(C)(C)C [Example 364, 5-Cyclopropyl-6-(2-methyl-propane-1-sulfonyl)-pyridine-2-carboxylic acid ((S)-2,2-dimethyl-1-methylcarbamoyl-propyl)-amide]",pEC50,human CB1 receptors,< 5.00
same,pEC50,human CB2 receptors,7.89
"Cc1nc(C(C)(C)NC(=O)c2ccc(N3CCCC3)c(OCC3CC3)n2)no1 [Example 33, 6-Cyclopropylmethoxy-5-pyrrolidin-1-yl-pyridine-2-carboxylic acid [1-methyl-1-(5-methyl-[1,2,4]oxadiazol-3-yl)-ethyl]-amide]",pEC50,human CB1 receptors; [1],< 5.00
same,pEC50,human CB2 receptors; [2],7.64
"CC(C)CSc1cccc(C(=O)N[C@@H](CC(C)C)C(N)=O)n1 [Example 331, 6-Isobutylsulfanyl-pyridine-2-carboxylic acid ((S)-1-carbamoyl-3-methyl-butyl)-amide]",pEC50,human CB1 receptors; [1],< 5.00
same,pEC50,human CB2 receptors; [2],7.78
"CC(C)(NC(=O)c1ccc(C2CC2)c(OCC2CC2)n1)c1nc(N)no1 [Example 309, 5-Cyclopropyl-6-cyclopropylmethoxy-pyridine-2-carboxylic acid [1-(3-amino-[1,2,4]oxadiazol-5-yl)-1-methyl-ethyl]-amide]",pEC50,human CB1 receptors; [1],< 5.00
same,pEC50,human CB2 receptors; [2],6.75
"Cc1nc(C(C)(C)NC(=O)c2ccc(C3CCCO3)c(-c3cccc(Cl)c3)n2)no1 (centres unmarked) [Example 125, 6-(3-Chloro-phenyl)-5-(tetrahydro-furan-2-yl)-pyridine-2-carboxylic acid [1-methyl-1-(5-methyl-[1,2,4]oxadiazol-3-yl)-ethyl]-amide]",pEC50,human CB1 receptors; [1],< 5.00
same,pEC50,human CB2 receptors; [2],6.68
"CC(C)C[C@H](NC(=O)c1ccc(C2CC2)c(OCC2CC2)n1)C(=O)OC(C)(C)C [Example 366, (S)-2-[(5-Cyclopropyl-6-cyclopropylmethoxy-pyridine-2-carbonyl)-amino]-4-methyl-pentanoic acid tert-butyl ester]",pEC50,human CB1 receptors; [1],< 5.00
same,pEC50,human CB2 receptors; [2],7.58
"CC(C)(O)[C@H](CC1CC1)NC(=O)c1ccc(N2CC(F)(F)C2)c(OCC2CC2)n1 [Example 135, 6-Cyclopropylmethoxy-5-(3,3-difluoro-azetidin-1-yl)-pyridine-2-carboxylic acid ((S)-1-cyclopropylmethyl-2-hydroxy-2-methyl-propyl)-amide]",pEC50,human CB1 receptors; [1],< 5.00
same,pEC50,human CB2 receptors; [2],7.42
"CC(C)(C)OC(=O)N(CC1CC1)NC(=O)c1ccc(C2CC2)c(OCC2CC2)n1 [Example 363, N′-(5-Cyclopropyl-6-cyclopropylmethoxy-pyridine-2-carbonyl)-N-cyclopropylmethyl-hydrazinecarboxylic acid tert-butyl ester]",pEC50,human CB1 receptors; [1],< 5.00
same,pEC50,human CB2 receptors; [2],7.42
"CN(C)C(=O)[C@@H](NC(=O)c1ccc(C2CC2)c(OCC2CC2)n1)c1ccccc1 [Example 226, 5-Cyclopropyl-6-cyclopropylmethoxy-pyridine-2-carboxylic acid ((+)-dimethylcarbamoyl-phenyl-methyl)-amide]",pEC50,human CB1 receptors; [1],< 5.00
same,pEC50,human CB2 receptors; [2],7.70
"Cn1c(C(C)(C)NC(=O)c2ccc(C3CC3)c(OCC3CC3)n2)noc1=O [Example 338, 5-Cyclopropyl-6-cyclopropylmethoxy-pyridine-2-carboxylic acid [1-methyl-1-(4-methyl-5-oxo-4,5-dihydro-[1,2,4]oxadiazol-3-yl)-ethyl]-amide]",pEC50,human CB1 receptors; [1],< 5.00
same,pEC50,human CB2 receptors; [2],6.27
"Cc1nc(C(C)(C)NC(=O)c2ccc(N3CCC34COC4)c(OCC3CC3)n2)no1 [Example 235, 6-Cyclopropylmethoxy-5-(6-oxa-1-aza-spiro[3.3]hept-1-yl)-pyridine-2-carboxylic acid [1-methyl-1-(5-methyl-[1,2,4]oxadiazol-3-yl)-ethyl]-amide]",pEC50,human CB1 receptors; [1],< 5.00
same,pEC50,human CB2 receptors; [2],7.38
"Cc1nc([C@](C)(CC2CC2)NC(=O)c2ccc(C3CC3)c(OCC3CC3)n2)no1 [Example 357, 5-Cyclopropyl-6-cyclopropylmethoxy-pyridine-2-carboxylic acid [(+)-2-cyclopropyl-1-methyl-1-(5-methyl-[1,2,4]oxadiazol-3-yl)-ethyl]-amide]",pEC50,human CB1 receptors; [1],6.70
same,pEC50,human CB2 receptors; [2],8.82
"CCOC(=O)C(CC)(CC)NC(=O)c1ccc(C2CC2)c(OCC2CC2)n1 [Example 257, 2-[(5-Cyclopropyl-6-cyclopropylmethoxy-pyridine-2-carbonyl)-amino]-2-ethyl-butyric acid ethyl ester]",pEC50,human CB1 receptors; [1],6.46
same,pEC50,human CB2 receptors; [2],8.64
"O=C(NN1CCCCC1)c1cccc(OCC2CC2)n1 [Example 68, 6-Cyclopropylmethoxy-pyridine-2-carboxylic acid piperidin-1-ylamide]",pEC50,human CB1 receptors; [1],< 5.00
same,pEC50,human CB2 receptors; [2],6.37
"CCOC(=O)C(CC)(CC)NC(=O)c1ccc(N2CCC23COC3)c(OCC2CC2)n1 [Example 263, 2-{[6-Cyclopropylmethoxy-5-(6-oxa-1-aza-spiro[3.3]hept-1-yl)-pyridine-2-carbonyl]-amino}-2-ethyl-butyric acid ethyl ester]",pEC50,human CB1 receptors; [1],< 5.00
same,pEC50,human CB2 receptors; [2],8.35
"CNC(=O)[C@H](CC(C)(C)C)NC(=O)c1ccc(C2CC2)c(OCC2CC2)n1 [Example 182, (S)-5-Cyclopropyl-6-(cyclopropylmethoxy)-N-(4,4-dimethyl-1-(methylamino)-1-oxopentan-2-yl)picolinamide]",pEC50,human CB1 receptors; [1],< 5.00
same,pEC50,human CB2 receptors; [2],8.77
"NC(=O)[C@H](CC1CC1)NC(=O)c1ccc(C2CC2)c(-c2cccc(Cl)c2)n1 [Example 97, 6-(3-Chloro-phenyl)-5-cyclopropyl-pyridine-2-carboxylic acid ((S)-1-carbamoyl-2-cyclopropyl-ethyl)-amide]",pEC50,human CB1 receptors; [1],< 5.00
same,pEC50,human CB2 receptors; [2],6.29
"CC(C)(NC(=O)c1ccc(N2CCCS2(=O)=O)c(OCC2CC2)n1)c1nccs1 [Example 77, 6-(Cyclopropylmethoxy)-5-(1,1-dioxido-isothiazolidin-2-yl)-N-[2-(1,3-thiazol-2-yl)propan-2-yl]pyridine-2-carboxamide]",pEC50,human CB1 receptors; [1],< 5.00
same,pEC50,human CB2 receptors; [2],5.85
"Cc1nc(C(C)(C)NC(=O)c2ccc(C3CCCC3)c(OCC3CC3)n2)no1 [Example 54, 5-Cyclopentyl-6-cyclopropylmethoxy-pyridine-2-carboxylic acid [1-methyl-1-(5-methyl-[1,2,4]oxadiazol-3-yl)-ethyl]-amide]",pEC50,human CB1 receptors; [1],5.67
same,pEC50,human CB2 receptors; [2],7.94
"CNC(=O)[C@@H](NC(=O)c1cccc(-c2ccccc2)n1)C(C)(C)C [Example 204, (S)-N-(3,3-Dimethyl-1-(methylamino)-1-oxobutan-2-yl)-6-phenylpicolinamide]",pEC50,human CB1 receptors; [1],6.13
same,pEC50,human CB2 receptors; [2],7.88
"O=C(NC1(CO)CCCC1)c1ccc(C2CC2)c(OCC2CC2)n1 [Example 175, 5-Cyclopropyl-6-(cyclopropylmethoxy)-N-(1-(hydroxymethyl)cyclopentyl)picolinamide]",pEC50,human CB1 receptors; [1],< 5.00
same,pEC50,human CB2 receptors; [2],7.32
"CCC(CC)(NC(=O)c1ccc(N2CC(F)(F)C2)c(OCC2CC2)n1)C(=O)O [Example 207, 2-(6-(Cyclopropylmethoxy)-5-(3,3-difluoroazetidin-1-yl)picolinamido)-2-ethylbutanoic acid]",pEC50,human CB1 receptors; [1],< 5.00
same,pEC50,human CB2 receptors; [2],7.84
"O=C(NN1CCCCC1)c1cccc(-c2cccc(Cl)c2)n1 [Example 11, 6-(3-Chloro-phenyl)-pyridine-2-carboxylic acid piperidin-1-ylamide]",pEC50,human CB1 receptors; [1],< 5.00
same,pEC50,human CB2 receptors; [2],7.20
